Values quoted from earlier work in US20080318986A1, “Ddc Compositions” (priority 2005, published 2008).

Test system: adenoviral strains
Conditions: literature study; for inhibition of adenoviral strains: Kaneko et al. J. Jpn. Opthalmol. Soc. 107:196-201 (2003)

| SMILES | EC50 values against adenoviral strains (rank among NMSO3, HPMPC, dDC) (Kaneko et al. 2003, comparison in words only) | inhibition of adenoviral strains |
| --- | --- | --- |
| CCCCCCCCCCCCCCCCCCCCCCOCC(C)(COCCCCCCCCCCCCCCCCCCCCCC)CO[C@]1(C(=O)O)C[C@H](OS(=O)(=O)O)[C@@H](NC(C)=O)[C@H]([C@H](OS(=O)(=O)O)[C@@H](COS(=O)(=O)O)OS(=O)(=O)O)O1 [NMSO3] | lowest EC50 values | inhibited adenoviral strains |
| Nc1ccn(C[C@@H](CO)OCP(=O)(O)O)c(=O)n1 [HPMPC] |  | inhibited adenoviral strains |
| Nc1ccn([C@H]2CC[C@@H](CO)O2)c(=O)n1 [dDC, 2′,3′-Dideoxycytidine] |  | inhibited adenoviral strains |
